Test results from ChEMBL document CHEMBL1201862, “PubChem BioAssay data set” (2004).
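Where inhibition never reached the appropriate level, the endpoint shown equals the highest concentration tested. Otherwise, values were interpolated linearly from a five-concentration, 48-hour dose response in 96-well plates. The concentration for 50% growth inhibition is given as GI50.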 Calls of active or inactive are those of the source. Cut-off read from the data, not from the text of the source: active = GI50 up to about 1.1 µM and inactive = higher.

What was measured:
Assay in all cases: NCI tumour cell line growth inhibition, 48 h
786-0 = tested on: 786-0
A549 = tested on: A549
ACHN = tested on: ACHN
CAKI-1 = tested on: CAKI-1
CCRF-CEM = tested on: CCRF-CEM
COLO 205 = tested on: COLO 205
HL-60 = tested on: HL-60
HOP-62 = tested on: HOP-62
HOP-92 = tested on: HOP-92
IGROV-1 = tested on: IGROV-1
K562 = tested on: K562
M14 = tested on: M14
MCF7 = tested on: MCF7
MDA-MB-435 = tested on: MDA-MB-435
MOLT-4 = tested on: MOLT-4
Malme-3M = tested on: Malme-3M
NCI-H23 = tested on: NCI-H23
NCI-H460 = tested on: NCI-H460
NCI/ADR-RES = tested on: NCI/ADR-RES
OVCAR-4 = tested on: OVCAR-4
RPMI-8226 = tested on: RPMI-8226
RXF 393 = tested on: RXF 393
SF-268 = tested on: SF-268
SK-MEL-28 = tested on: SK-MEL-28
SK-MEL-2 = tested on: SK-MEL-2
SK-MEL-5 = tested on: SK-MEL-5
SK-OV-3 = tested on: SK-OV-3
SNB-75 = tested on: SNB-75
SR = tested on: SR
SW-620 = tested on: SW-620
T47D = tested on: T47D
U-251 = tested on: U-251
UACC-62 = tested on: UACC-62
BT-549 = tested on: BT-549
DU-145 = tested on: DU-145
EKVX = tested on: EKVX
HCC 2998 = tested on: HCC 2998
HCT-116 = tested on: HCT-116
HCT-15 = tested on: HCT-15
HT-29 = tested on: HT-29
Hs-578T = tested on: Hs-578T
KM12 = tested on: KM12
LOX IMVI = tested on: LOX IMVI
MDA-MB-231 = tested on: MDA-MB-231
MDA-N = tested on: MDA-N
NCI-H226 = tested on: NCI-H226
NCI-H522 = tested on: NCI-H522
OVCAR-3 = tested on: OVCAR-3
OVCAR-5 = tested on: OVCAR-5
OVCAR-8 = tested on: OVCAR-8
PC-3 = tested on: PC-3
SF-295 = tested on: SF-295
SF-539 = tested on: SF-539
SN12C = tested on: SN12C
SNB-19 = tested on: SNB-19
TK-10 = tested on: TK-10
UACC-257 = tested on: UACC-257
UO-31 = tested on: UO-31
A498 = tested on: A498

## C=CCN1C(=O)CS/C1=N/NC(=O)C(O)(c1ccccc1)c1ccccc1
786-0
  GI50: > 10 µM (inactive)
A549
  GI50: > 10 µM (inactive)
ACHN
  GI50: > 10 µM (inactive)
CAKI-1
  GI50: > 10 µM (inactive)
CCRF-CEM
  GI50: > 10 µM (inactive)
COLO 205
  GI50: > 10 µM (inactive)
HL-60
  GI50: > 10 µM (inactive)
HOP-62
  GI50: > 10 µM (inactive)
HOP-92
  GI50: > 10 µM (inactive)
IGROV-1
  GI50: > 10 µM (inactive)
K562
  GI50: > 10 µM (inactive)
M14
  GI50: > 10 µM (inactive)
MCF7
  GI50: > 10 µM (inactive)
MDA-MB-435
  GI50: > 10 µM (inactive)
MOLT-4
  GI50: > 10 µM (inactive)
Malme-3M
  GI50: > 10 µM (inactive)
NCI-H23
  GI50: > 10 µM (inactive)
NCI-H460
  GI50: > 10 µM (inactive)
NCI/ADR-RES
  GI50: > 10 µM (inactive)
OVCAR-4
  GI50: > 10 µM (inactive)
RPMI-8226
  GI50: > 10 µM (inactive)
RXF 393
  GI50: > 10 µM (inactive)
SF-268
  GI50: > 10 µM (inactive)
SK-MEL-28
  GI50: > 10 µM (inactive)
SK-MEL-2
  GI50: > 10 µM (inactive)
SK-MEL-5
  GI50: > 10 µM (inactive)
SK-OV-3
  GI50: > 10 µM (inactive)
SNB-75
  GI50: > 10 µM (inactive)
SR
  GI50: > 10 µM (inactive)
SW-620
  GI50: > 10 µM (inactive)
T47D
  GI50: > 10 µM (inactive)
U-251
  GI50: > 10 µM (inactive)
UACC-62
  GI50: > 10 µM (inactive)

## Cc1ccc(C(=O)O)cc1S(=O)(=O)Nn1cnc2ccc(S(=O)(=O)Nc3ccccc3C(=O)O)cc2c1=O
786-0
  GI50: > 100 µM (inactive)
A549
  GI50: > 100 µM (inactive)
ACHN
  GI50: > 100 µM (inactive)
BT-549
  GI50: > 100 µM (inactive)
CAKI-1
  GI50: > 100 µM (inactive)
CCRF-CEM
  GI50: > 100 µM (inactive)
COLO 205
  GI50: 31.6 µM (inactive)
DU-145
  GI50: > 100 µM (inactive)
EKVX
  GI50: > 100 µM (inactive)
HCC 2998
  GI50: > 100 µM (inactive)
HCT-116
  GI50: 46.1 µM (inactive)
HCT-15
  GI50: > 100 µM
HL-60
  GI50: > 100 µM (inactive)
HOP-62
  GI50: > 100 µM (inactive)
HOP-92
  GI50: > 100 µM (inactive)
HT-29
  GI50: > 100 µM (inactive)
Hs-578T
  GI50: > 100 µM (inactive)
IGROV-1
  GI50: 60.7 µM (inactive)
K562
  GI50: 1.78 µM (inactive)
KM12
  GI50: 10.9 µM (inactive)
LOX IMVI
  GI50: > 100 µM (inactive)
M14
  GI50: 18.3 µM (inactive)
MCF7
  GI50: > 100 µM (inactive)
MDA-MB-231
  GI50: > 100 µM (inactive)
MDA-MB-435
  GI50: > 100 µM (inactive)
MDA-N
  GI50: 47.3 µM (inactive)
MOLT-4
  GI50: > 100 µM (inactive)
Malme-3M
  GI50: > 100 µM (inactive)
NCI-H226
  GI50: 83.8 µM (inactive)
NCI-H23
  GI50: > 100 µM (inactive)
NCI-H460
  GI50: > 100 µM (inactive)
NCI-H522
  GI50: > 100 µM (inactive)
NCI/ADR-RES
  GI50: > 100 µM (inactive)
OVCAR-3
  GI50: > 100 µM (inactive)
OVCAR-4
  GI50: > 100 µM (inactive)
OVCAR-5
  GI50: 54.6 µM (inactive)
OVCAR-8
  GI50: > 100 µM (inactive)
PC-3
  GI50: 16.6 µM (inactive)
RPMI-8226
  GI50: 54.5 µM (inactive)
SF-268
  GI50: > 100 µM (inactive)
SF-295
  GI50: 26.1 µM (inactive)
SF-539
  GI50: > 100 µM (inactive)
SK-MEL-28
  GI50: > 100 µM (inactive)
SK-MEL-2
  GI50: 61 µM (inactive)
SK-OV-3
  GI50: > 100 µM (inactive)
SN12C
  GI50: > 100 µM (inactive)
SNB-19
  GI50: > 100 µM (inactive)
SNB-75
  GI50: > 100 µM (inactive)
SR
  GI50: > 100 µM (inactive)
SW-620
  GI50: > 100 µM (inactive)
TK-10
  GI50: > 100 µM (inactive)
U-251
  GI50: > 100 µM (inactive)
UACC-257
  GI50: > 100 µM (inactive)
UACC-62
  GI50: 8.93 µM (inactive)
UO-31
  GI50: 46.1 µM (inactive)

## Nc1ccc(C2(c3ccc(N)cc3)C3CC4CC(C3)CC2C4)cc1
A498
  GI50: 21 µM (inactive)
ACHN
  GI50: 18.7 µM (inactive)
BT-549
  GI50: 11.2 µM (inactive)
CAKI-1
  GI50: 15 µM (inactive)
CCRF-CEM
  GI50: 3.76 µM (inactive)
EKVX
  GI50: 16.4 µM (inactive)
HCC 2998
  GI50: 20.8 µM (inactive)
HCT-116
  GI50: 21.9 µM (inactive)
HCT-15
  GI50: 14.6 µM
HL-60
  GI50: 19.2 µM (inactive)
HOP-62
  GI50: 13.6 µM (inactive)
HOP-92
  GI50: 12.4 µM (inactive)
HT-29
  GI50: 0.998 µM (active)
IGROV-1
  GI50: 9.59 µM (inactive)
K562
  GI50: 10.3 µM (inactive)
KM12
  GI50: 0.0975 µM (active)
LOX IMVI
  GI50: 16.2 µM (inactive)
M14
  GI50: 14.9 µM (inactive)
MCF7
  GI50: 19.5 µM (inactive)
MDA-MB-231
  GI50: 17.4 µM (inactive)
MDA-MB-435
  GI50: 14.7 µM (inactive)
MDA-N
  GI50: 18.6 µM (inactive)
MOLT-4
  GI50: 4.95 µM (inactive)
NCI-H226
  GI50: 19.9 µM (inactive)
NCI-H23
  GI50: 12.4 µM (inactive)
NCI-H522
  GI50: 15.6 µM (inactive)
NCI/ADR-RES
  GI50: 0.0792 µM (active)
OVCAR-3
  GI50: 10.9 µM (inactive)
OVCAR-4
  GI50: 14.3 µM (inactive)
OVCAR-5
  GI50: 15.8 µM (inactive)
OVCAR-8
  GI50: 7.73 µM (inactive)
PC-3
  GI50: 14.9 µM (inactive)
RXF 393
  GI50: 2.74 µM (inactive)
SF-268
  GI50: 1.57 µM (inactive)
SF-295
  GI50: 0.0592 µM (active)
SK-MEL-28
  GI50: 14.9 µM (inactive)
SK-MEL-2
  GI50: 18.5 µM (inactive)
SK-OV-3
  GI50: 13.4 µM (inactive)
SN12C
  GI50: 18.5 µM (inactive)
SNB-19
  GI50: 14.6 µM (inactive)
SR
  GI50: 14.5 µM (inactive)
SW-620
  GI50: 11.4 µM (inactive)
T47D
  GI50: 14.5 µM (inactive)
TK-10
  GI50: 18 µM (inactive)
U-251
  GI50: 18.3 µM (inactive)
UACC-257
  GI50: 19.2 µM (inactive)
UACC-62
  GI50: 16.3 µM (inactive)
UO-31
  GI50: 18.2 µM (inactive)

## O=[N+]([O-])c1ccc(/C=N/Nc2nnc3c4ccccc4c4ncccc4c3n2)o1
786-0
  GI50: > 10 µM (inactive)
A549
  GI50: > 10 µM (inactive)
CAKI-1
  GI50: > 10 µM (inactive)
CCRF-CEM
  GI50: > 10 µM (inactive)
COLO 205
  GI50: > 10 µM (inactive)
DU-145
  GI50: > 10 µM (inactive)
EKVX
  GI50: > 10 µM (inactive)
HCC 2998
  GI50: > 10 µM (inactive)
HCT-15
  GI50: > 10 µM
HL-60
  GI50: > 10 µM (inactive)
HOP-62
  GI50: > 10 µM (inactive)
HT-29
  GI50: > 10 µM (inactive)
IGROV-1
  GI50: > 10 µM (inactive)
K562
  GI50: > 10 µM (inactive)
KM12
  GI50: > 10 µM (inactive)
M14
  GI50: > 10 µM (inactive)
MCF7
  GI50: > 10 µM (inactive)
MDA-MB-231
  GI50: > 10 µM (inactive)
MDA-N
  GI50: > 10 µM (inactive)
MOLT-4
  GI50: > 10 µM (inactive)
Malme-3M
  GI50: > 10 µM (inactive)
NCI-H23
  GI50: > 10 µM (inactive)
OVCAR-8
  GI50: > 10 µM (inactive)
PC-3
  GI50: > 10 µM (inactive)
RPMI-8226
  GI50: > 10 µM (inactive)
RXF 393
  GI50: > 10 µM (inactive)
SF-268
  GI50: > 10 µM (inactive)
SF-295
  GI50: > 10 µM (inactive)
SK-MEL-28
  GI50: > 10 µM (inactive)
SK-MEL-5
  GI50: > 10 µM (inactive)
SK-OV-3
  GI50: > 10 µM (inactive)
SN12C
  GI50: > 10 µM (inactive)
SNB-75
  GI50: > 10 µM (inactive)
SR
  GI50: > 10 µM (inactive)
SW-620
  GI50: > 10 µM (inactive)
T47D
  GI50: > 10 µM (inactive)
TK-10
  GI50: > 10 µM (inactive)
UACC-257
  GI50: > 10 µM (inactive)
UACC-62
  GI50: > 10 µM (inactive)
